Assay results as given in EP4741383A1, “COMPOUND AND USE THEREOF AS ANTI-CANCER DRUG” (Tyligand Bioscience (Shanghai) Limited, priority 2023, dated 2025).

Columns and labels:
Type in all cases: biochemical
SHP1 = biological target: T1, SHP1 (Homo sapiens, UniProt P29350); assay: Tyrosine phosphatase selectivity (pNPP substrate), SHP1; conditions: for IC50: SHP1, pNPP substrate; for IC50PTP/IC50SHP2 SHP1: selectivity ratio SHP1 over SHP2
T1 construct: made in house; host or cells: E. coli
Description: (§1) This experiment evaluated the selectivity of the disclosed compounds against tyrosine phosphatases, including SHP1, HePTP, Laforin, LMWPTP, LYP, PTP1B, PRL2, SSU72, VHR, FAP1, STEP, CDC14A, CD45, MEG2, and PP5, all expressed and purified from E. coli.
(§2) Phosphatase activity was measured using p-nitrophenyl phosphate (pNPP) (Fisher Scientific) as the substrate in 50 mM 3,3-dimethylglutaric acid buffer (pH 7.0, containing 1 mM EDTA), with ionic strength adjusted to 0.15 M with NaCl. […] After 10-60 minutes, the reaction was quenched by adding 20 µL of 5 N NaOH. Wells without enzyme were used as controls for correction. The amount of the product, p-nitrophenol, was determined by measuring the absorbance at 405 nm using a Spectra MAX340 microplate spectrophotometer (Molecular Devices), with a molar extinction coefficient of 18000 M^-1cm^-1.
(§3) Data were analyzed using GraphPad Prism software. Dose-response curves were obtained by fitting data using the nonlinear S-curve regression Dose-response-inhibition equation, and IC50 values were calculated.

Laforin = biological target: T2, Laforin (Homo sapiens, UniProt O95278); assay: Tyrosine phosphatase selectivity (pNPP substrate), Laforin; conditions: for IC50: Laforin, pNPP substrate; for IC50PTP/IC50SHP2 Laforin: selectivity ratio Laforin over SHP2
T2 construct: made in house; host or cells: E. coli
T2 sequence (O95278 1-331): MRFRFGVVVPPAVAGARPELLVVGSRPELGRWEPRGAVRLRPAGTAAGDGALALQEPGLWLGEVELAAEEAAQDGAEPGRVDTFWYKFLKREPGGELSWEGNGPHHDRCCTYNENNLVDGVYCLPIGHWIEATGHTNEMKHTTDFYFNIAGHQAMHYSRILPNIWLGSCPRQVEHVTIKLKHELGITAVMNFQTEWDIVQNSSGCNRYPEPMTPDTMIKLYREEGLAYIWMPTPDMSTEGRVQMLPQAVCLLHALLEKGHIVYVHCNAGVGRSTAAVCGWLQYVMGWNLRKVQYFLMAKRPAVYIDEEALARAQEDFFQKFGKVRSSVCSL
Description: as §1, §2, §3

PTP1B = biological target: T3, PTP1B (Homo sapiens, UniProt P18031); assay: Tyrosine phosphatase selectivity (pNPP substrate), PTP1B; conditions: for IC50: PTP1B, pNPP substrate; for IC50PTP/IC50SHP2 PTP1B: selectivity ratio PTP1B over SHP2
T3 construct: made in house; host or cells: E. coli
T3 sequence (P18031 1-435): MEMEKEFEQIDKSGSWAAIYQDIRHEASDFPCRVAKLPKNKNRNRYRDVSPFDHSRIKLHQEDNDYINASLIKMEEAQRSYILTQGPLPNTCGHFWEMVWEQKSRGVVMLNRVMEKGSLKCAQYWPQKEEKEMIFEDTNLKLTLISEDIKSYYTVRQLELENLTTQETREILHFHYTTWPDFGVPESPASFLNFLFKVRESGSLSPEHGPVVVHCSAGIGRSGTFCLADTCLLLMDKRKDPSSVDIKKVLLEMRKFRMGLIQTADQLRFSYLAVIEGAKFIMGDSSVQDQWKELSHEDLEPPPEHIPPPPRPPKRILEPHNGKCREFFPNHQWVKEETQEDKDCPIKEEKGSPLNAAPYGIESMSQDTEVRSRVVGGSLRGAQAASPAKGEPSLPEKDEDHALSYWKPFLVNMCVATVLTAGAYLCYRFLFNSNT
Description: as §1, §2, §3

PRL2 = biological target: T4, PRL2 (Homo sapiens, UniProt Q12974); assay: Tyrosine phosphatase selectivity (pNPP substrate), PRL2; conditions: for IC50: PRL2, pNPP substrate; for IC50PTP/IC50SHP2 PRL2: selectivity ratio PRL2 over SHP2
T4 construct: made in house; host or cells: E. coli
T4 sequence (Q12974 1-167): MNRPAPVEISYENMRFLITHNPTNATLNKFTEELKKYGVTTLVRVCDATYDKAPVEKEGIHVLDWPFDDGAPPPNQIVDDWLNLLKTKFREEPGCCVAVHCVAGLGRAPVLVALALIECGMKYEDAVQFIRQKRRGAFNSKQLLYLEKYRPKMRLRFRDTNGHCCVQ
Description: as §1, §2, §3

SSU72 = biological target: T5, SSU72 (Homo sapiens, UniProt Q9NP77); assay: Tyrosine phosphatase selectivity (pNPP substrate), SSU72; conditions: for IC50: SSU72, pNPP substrate; for IC50PTP/IC50SHP2 SSU72: selectivity ratio SSU72 over SHP2
T5 construct: made in house; host or cells: E. coli
T5 sequence (Q9NP77 1-194): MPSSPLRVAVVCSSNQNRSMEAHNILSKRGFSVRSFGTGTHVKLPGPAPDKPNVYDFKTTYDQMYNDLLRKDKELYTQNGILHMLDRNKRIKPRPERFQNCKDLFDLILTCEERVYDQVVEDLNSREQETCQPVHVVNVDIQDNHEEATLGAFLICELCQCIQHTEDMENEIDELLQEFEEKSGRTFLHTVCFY
Description: as §1, §2, §3

FAP1 [1] = biological target: T6, FAP1 (Homo sapiens, UniProt Q12923); assay: Tyrosine phosphatase selectivity (pNPP substrate), FAP1; conditions: FAP1, pNPP substrate
T6 sequence (Q12923 2163-2477): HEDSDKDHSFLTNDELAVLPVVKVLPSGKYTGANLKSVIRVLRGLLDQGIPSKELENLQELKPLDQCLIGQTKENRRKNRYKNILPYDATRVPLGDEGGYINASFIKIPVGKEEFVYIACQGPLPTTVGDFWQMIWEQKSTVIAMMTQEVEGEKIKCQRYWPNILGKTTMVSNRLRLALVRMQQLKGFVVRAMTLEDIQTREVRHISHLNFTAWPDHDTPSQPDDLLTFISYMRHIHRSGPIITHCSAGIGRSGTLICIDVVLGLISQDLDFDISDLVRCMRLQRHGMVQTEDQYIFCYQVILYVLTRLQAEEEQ
Description: as §1, §2, §3

FAP1 [2] = assay: as above; conditions: selectivity ratio FAP1 over SHP2
Description: as §1, §2, §3

STEP = biological target: T7, STEP (Homo sapiens, UniProt P54829); assay: Tyrosine phosphatase selectivity (pNPP substrate), STEP; conditions: for IC50: STEP, pNPP substrate; for IC50PTP/IC50SHP2 STEP: selectivity ratio STEP over SHP2
T7 construct: made in house; host or cells: E. coli
T7 sequence (P54829 1-565): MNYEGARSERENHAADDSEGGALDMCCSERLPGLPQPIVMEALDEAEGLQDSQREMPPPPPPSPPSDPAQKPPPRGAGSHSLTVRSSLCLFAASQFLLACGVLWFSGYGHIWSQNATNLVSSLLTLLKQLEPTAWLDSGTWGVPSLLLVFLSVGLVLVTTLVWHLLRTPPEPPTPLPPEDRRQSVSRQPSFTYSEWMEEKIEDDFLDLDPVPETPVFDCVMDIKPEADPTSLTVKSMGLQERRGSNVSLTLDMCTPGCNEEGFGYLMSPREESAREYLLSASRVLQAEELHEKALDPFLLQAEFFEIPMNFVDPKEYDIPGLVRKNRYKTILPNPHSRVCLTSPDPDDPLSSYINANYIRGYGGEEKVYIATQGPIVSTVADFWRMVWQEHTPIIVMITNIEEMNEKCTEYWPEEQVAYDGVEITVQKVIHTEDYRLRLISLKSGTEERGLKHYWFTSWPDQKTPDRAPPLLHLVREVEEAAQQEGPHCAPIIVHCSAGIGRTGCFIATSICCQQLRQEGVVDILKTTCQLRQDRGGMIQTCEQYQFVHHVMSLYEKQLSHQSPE
Description: as §1, §2, §3

T1 sequence (P29350 whole entry): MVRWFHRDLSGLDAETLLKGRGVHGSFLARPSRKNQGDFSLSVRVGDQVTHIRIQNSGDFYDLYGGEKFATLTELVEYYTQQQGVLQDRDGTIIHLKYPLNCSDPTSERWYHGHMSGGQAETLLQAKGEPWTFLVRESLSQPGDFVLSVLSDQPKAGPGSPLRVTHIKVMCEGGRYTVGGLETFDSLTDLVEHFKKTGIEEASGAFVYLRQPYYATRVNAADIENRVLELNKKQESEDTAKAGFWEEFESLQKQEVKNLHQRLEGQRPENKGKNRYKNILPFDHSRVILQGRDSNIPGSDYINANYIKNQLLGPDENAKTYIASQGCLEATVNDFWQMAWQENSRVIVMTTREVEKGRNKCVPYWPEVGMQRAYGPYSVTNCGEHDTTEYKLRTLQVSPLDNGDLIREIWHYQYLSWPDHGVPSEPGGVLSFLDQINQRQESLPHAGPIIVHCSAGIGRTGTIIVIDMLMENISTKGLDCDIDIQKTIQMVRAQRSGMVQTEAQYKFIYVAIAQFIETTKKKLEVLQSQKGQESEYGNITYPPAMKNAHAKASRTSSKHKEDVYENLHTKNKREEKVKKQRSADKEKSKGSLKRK

Compound | IC50 (SHP1) | IC50PTP/IC50SHP2 SHP1 (SHP1) | IC50 (Laforin) | IC50PTP/IC50SHP2 Laforin (Laforin) | IC50 (PTP1B) | IC50PTP/IC50SHP2 PTP1B (PTP1B) | IC50 (PRL2) | IC50PTP/IC50SHP2 PRL2 (PRL2) | IC50 (SSU72) | IC50PTP/IC50SHP2 SSU72 (SSU72) | IC50 (FAP1 [1]) | IC50PTP/IC50SHP2 FAP1 (FAP1 [2]) | IC50 (STEP) | IC50PTP/IC50SHP2 STEP (STEP)
O=C(Nc1ccc(-c2cc3cc(F)c(-c4nnn[nH]4)cc3n2C2CCC2)cc1)C(=O)Nc1ccc(N2CC3COCC3C2)cc1 (stereo not shown) [Example 114] | 0.1 µM | 1.3 | 2.44 µM | 33.8 | 0.47 µM | 6.5 | > 100 µM | 1388 | 0.09 µM | 1.2 | 1.9 µM | 26.3 | 1.83 µM | 25.4
Cn1cc(-c2ccc(NC(=O)C(=O)Nc3ccc(-c4cc5cc(F)c(-c6noc(=O)[nH]6)cc5n4C4CCC4)cc3)cc2)cn1 [Example 123] | 0.32 µM | 2.3 | > 100 µM | 709.2 | 1.2 µM | 8.5 | > 100 µM | 709.2 | > 100 µM | 709.2 | 7.3 µM | 51.8 | 15.5 µM | 109.9
Cn1cc(-c2ccc(NC(=O)C(=O)Nc3ccc(-c4cc5cc(F)c(-c6nnc(C(F)(F)F)[nH]6)cc5n4C4CCC4)cc3)cc2)cn1 [Example 124] | 5.62 µM | 7.8 | > 100 µM | 139.7 | > 100 µM | 139.7 | > 100 µM | 139.7 | > 100 µM | 139.7 | > 100 µM | 139.7 | > 100 µM | 139.7
O=C(Nc1ccc(-c2oc3cc(F)c(-c4nnn[nH]4)cc3c2C2CCC2)cc1)C(=O)Nc1ccc(N2CCC3(CCOC3)CC2)cc1 [Example 125] | 0.17 µM | 3.3 | > 100 µM | 1960.8 | 6.28 µM | 123.1 | > 100 µM | 1960.8 | > 100 µM | 1960.8 | 7.44 µM | 145.9 | 6.62 µM | 129.8
O=C(Nc1ccc(-c2ccsc2)cc1)C(=O)Nc1ccc(-c2cc3ccc(-c4nnn[nH]4)nc3n2C2CCC2)cc1 [Example 129] | 0.7 µM | 11.9 | > 20 µM | 339.0 | 8.5 µM | 144.1 | > 50 µM | 847.5 | 35.8 µM | 606.8 | 4.2 µM | 71.2 | < 3 µM | 50.8
